Tested on: growth hormone (GH) release
Assay: In vivo GH release in pentobarbital anesthetized rats (serum GH by RIA)
Design: species or system immature female Sprague-Dawley rats
Conditions: Table 4, control GH 181 ± 69
Method: Immature female Sprague-Dawley rats were obtained from the Charles River Laboratories (Wilmington, Mass.). After arrival they were housed at 25° C. with a 14:10 hour light:dark cycle. Water and Purina rat chow were available ad libitum. Pups were kept with their mothers until 21 days of age.
Twenty-six day old rats, six rats per treatment group, were anesthetized interperitoneally with 50 mg/Kg of pentobarbital 20 minutes prior to i. v. treatment with peptide. Normal saline with 0.1% gelatin was the vehicle for intravenous (i. v.) injections of the peptides. The anesthetized rats, weighing 55-65 grams, were injected i. v. with the quantity of growth hormone releasing compounds indicated in Tables 3 and 4. Injection was made as a 0.2 mL solution into the jugular vein.
All animals were sacrificed by guillotine 10 minutes after the final test injection (see Tables 3 and 4). Trunk blood for the determination of blood GH levels was collected following decapitation. After allowing the blood to clot, it was centrifuged and the serum was separated from the clot. […]
The mixed reagents are then typically incubated at room temperature (about 25° C.) for about 24 hours prior to addition of a second antibody (e.g., goat or rabbit anti-monkey gamma globulin serum) which binds to and causes precipitation of the complexed growth hormone antiserum. Precipitated contents of the RIA tubes are then analyzed for the number of counts in a specified period of time in a gamma scintillation counter. […] GH levels of unknowns are then determined by reference to the standard curve.
Serum GH was measured by RIA with reagents provided by the National Hormone and Pituitary Program.
Serum levels in Tables 3 and 4 are recorded in ng/mL in terms of the rat GH standard of 0.61 International Units/mg (IU/mg). Data is recorded as the mean +/- standard error of the mean (SEM). […]

What does the source list for “His--DCys(SMe)--Ala--Trp--DPhe--Lys--NH2”?
GH Released (total dose 1.0 μg i.v.): 193 ± 28 ng/mL; GH Released (total dose 3.0 μg i.v.): 180 ± 34 ng/mL; GH Released (total dose .3 μg i.v.): 178 ± 28 ng/mL

Reference: patent publication US5486505A, “Polypeptide compounds having growth hormone releasing activity” (Polygen Holding Corporation, priority 1992, dated 1996)
